Test results taken from ChEMBL document CHEMBL5126592, “Design, synthesis and activity against drug-resistant bacteria evaluation of C-20, C-23 modified 5-O-mycaminosyltylonolide derivatives” (Eur J Med Chem, 2022).
Converted amounts (≈) assume the structure as drawn.

What was measured:
[1] = Genotoxicity in Salmonella typhimurium TA1537 assessed as number of revertants at 4x10^-5 mg/plate incubated for 72 hrs in absence of liver S9 fraction by Ames test (reference value: 22.67 +/- 2.52); format: toxicity; details: salmonella enterica subsp. enterica serovar typhimurium, s9, 72 h
[2] = Genotoxicity in Salmonella typhimurium TA102 assessed as number of revertants at 4x10^-5 mg/plate incubated for 72 hrs in presence of liver S9 fraction by Ames test (reference value: 465.33 +/- 18.04); format: toxicity, subcellular; details: salmonella enterica subsp. enterica serovar typhimurium, s9, 72 h
[3] = Genotoxicity in Salmonella typhimurium TA102 assessed as number of revertants at 8x10^-6 mg/plate incubated for 72 hrs in absence of liver S9 fraction by Ames test (reference value: 386.67 +/- 23.44); format: toxicity; details: salmonella enterica subsp. enterica serovar typhimurium, s9, 72 h
Escherichia coli [4] = experiment: Antibacterial activity against Escherichia coli ATCC 25922 incubated for 16 to 20 hrs in presence of 50% foetal bovine serum by broth microdilution method; format: functional; details: time 16-20 hrs
[5] = Genotoxicity in Salmonella typhimurium TA98 assessed as number of revertants at 1x10^-3 mg/plate incubated for 72 hrs in presence of liver S9 fraction by Ames test (reference value: 43.67+/- 7.1); format: toxicity, subcellular; details: salmonella enterica subsp. enterica serovar typhimurium, s9, 72 h
[6] = Genotoxicity in Salmonella typhimurium TA100 assessed as number of revertants at 8x10^-6 mg/plate incubated for 72 hrs in presence of liver S9 fraction by Ames test (reference value: 204.33 +/- 8.14); format: toxicity, subcellular; details: salmonella enterica subsp. enterica serovar typhimurium, s9, 72 h
Staphylococcus aureus = experiment: Antibacterial activity against Staphylococcus aureus ATCC 29213 at pH 6.6 incubated for 16 to 20 hrs by broth microdilution method; format: functional; details: time 16-20 hrs
[7] = Genotoxicity in Salmonella typhimurium TA1535 assessed as number of revertants at 4x10^-5 mg/plate incubated for 72 hrs in absence of liver S9 fraction by Ames test (reference value: 14.33 +/- 0.58); format: toxicity; details: salmonella enterica subsp. enterica serovar typhimurium, s9, 72 h
Escherichia coli [8] = experiment: Antibacterial activity against Escherichia coli ATCC 25922 incubated for 16 to 20 hrs using 10^4 CFU/ml bacterial inoculum by broth microdilution method; format: functional; details: time 16-20 hrs
Escherichia coli [9] = experiment: Antibacterial activity against Escherichia coli ATCC 25922 at pH 8 incubated for 16 to 20 hrs by broth microdilution method; format: functional; details: time 16-20 hrs
Escherichia coli [10] = experiment: Antibacterial activity against Escherichia coli ATCC 25922 incubated for 16 to 20 hrs using 10^7 CFU/ml bacterial inoculum by broth microdilution method; format: functional; details: time 16-20 hrs
Escherichia coli [11] = experiment: Antibacterial activity against Escherichia coli ATCC 25922 at pH 7 incubated for 16 to 20 hrs by broth microdilution method; format: functional; details: time 16-20 hrs
[12] = Genotoxicity in Salmonella typhimurium TA102 assessed as number of revertants at 1x10^-3 mg/plate incubated for 72 hrs in absence of liver S9 fraction by Ames test (reference value: 386.67 +/- 23.44); format: toxicity; details: salmonella enterica subsp. enterica serovar typhimurium, s9, 72 h

CC[C@H]1OC(=O)C[C@@H](O)[C@H](C)[C@@H](O[C@@H]2O[C@H](C)[C@@H](O)[C@H](N(C)C)[C@H]2O)[C@@H](CCN(C)Cc2cn(-c3cnc4ccccc4c3)nn2)C[C@@H](C)C(=O)/C=C/C(C)=C/[C@@H]1CN1CCCCCC1
Activity [1]: 19.67 | Activity [2]: 433.33 | Activity [3]: 425.33 | MIC (Escherichia coli [4]): 4 µg/mL | Activity [5]: 40.33 | Activity [6]: 167 | MIC (Staphylococcus aureus): 32 µg/mL (≈ 35.5 µM) | Activity [7]: 6.33 | MIC (Escherichia coli [8]): 0.25 µg/mL (≈ 0.277 µM) | MIC (Escherichia coli [9]): 0.25 µg/mL (≈ 0.277 µM) | MIC (Escherichia coli [10]): 1 µg/mL (≈ 1.11 µM) | MIC (Escherichia coli [11]): 4 µg/mL (≈ 4.43 µM) | Activity [12]: 418
